pIC50: −log10 of the molar value. Like-named read-outs stand apart in the source and are kept apart here.
Experiments:
fasted Balb/c mice = assay: Fasting-induced muscle atrophy; format: in vivo, mouse
Experimental: Wild type eight-weeks-old male Balb/c mice obtained from the vivarium Fundacion Ciencia & Vida Chile (Santiago, Chile) were used. Mice were housed in independent plastic cages in a room maintained at 25° C. with a 12-h:12-h light:dark cycle.
Twenty-four hours before and during the 2 days of fasted procedures, animals received oral administration via feeding tubes (15 gauge) of vehicle (50% Polyethylene glycol 400 (Sigma-Aldrich P3265) in distilled water or 10 mg/kg of compound 3 formulated in vehicle solution.
After 2 days of fasting the animals were sacrificed and muscles were removed from both hindlimbs. Mice with feed and water ad libitum were used as control.
For in vivo measurements of protein synthesis, puromycin (Sigma-Aldrich, P8833) was prepared at 0.04 μmol/g body weight in a volume of 200 μL of PBS, and subsequently administered into the animals via IP injection, 30 min prior to muscle collection.
Upon collection, muscles were immediately frozen in liquid nitrogen and then stored at −80° C. […] Protein concentration in supernatants was determined using BCA Protein Assay Kit (Pierce). […]
Puromycin (12D10) (Merck Millipore) and β-actin (Sigma-Aldrich) antibodies were used as primary antibodies. […] Quantification of protein bands was done by densitometry using ImageJ software. […]

CHO cells = assay: Protein translation assay (puromycin incorporation in CHO cells, unstressed or Tg-stressed); format: cell-based, Chinese hamster; details: for activity at 0.1 µM / activity at 1 µM: Cricetulus griseus, media alone 100%; for activity at 0.1 µM: read-out: % Recovery of protein expression (100 nM test compound)
Experimental: CHO cells were maintained at 37° C. and 5% CO2 in DMEM supplemented with 10% fetal bovine serum (FBS), 2 mM L-glutamine, 100 U/ml penicillin, and 100 μg/ml streptomycin. After reaching 80% of confluence, cells were detached and seeded on 6 well plates in complete media, allowed to recover overnight and treated for 2 hours with 1 μM of the test compound (to assess protein synthesis levels in unstressed condition), or for 1 hour with 100 nM and 1 μM of the test compound and then co-treated with 300 nM Tg and 100 nM and 1 μM of the test compound (to assess the recovery of protein synthesis in a stressed condition). Cells treated with Tg alone were used as controls.
After the 2 hours treatments, media were replaced by adding 10 μg/ml puromycin (Sigma Aldrich) in complete media for 30 min. Media were removed and cells were lysed with SDS-PAGE lysis buffer. Lysates were transferred to 1.5 ml tubes and sonicated for 3 minutes and total protein amount were quantified using BCA Protein Assay Kit (Pierce). Equal amount of protein (30 μg) was loaded on SDS-PAGE gels. Proteins were transferred onto 0.2 μm PVDF membranes (BioRad) and probed with primary antibodies diluted in Tris-buffered saline supplemented with 0.1% Tween 20 and 3% bovine serum albumin.
(§1) Puromycin (12D10) antibody was used as primary antibody (Merck Millipore). A HRP-conjugated secondary antibody (Rockland) was employed to detect immune-reactive bands using enhanced chemiluminescence (ECL Western Blotting Substrate, Pierce). Quantification of protein bands was done by densitometry using ImageJ.
Percent increase of protein synthesis in unstressed cells (without Tg treatment) in the presence of media alone or certain test compounds is shown in Table 3 and FIG. 2. The percentage levels were normalized to the media alone condition, which correspond to 100% protein synthesis.
Percent recovery of protein synthesis in stressed cells (with Tg treatment) due to the test compounds at 100 nM or 1 μM is shown in FIGS. 3A and 3B, respectively, and in Table 3. The levels were normalized to the media alone and to Tg alone conditions, which correspond to 100% and 0% respectively.

ATF4 = ATF4 expression inhibition assay (thapsigargin-stressed HEK293T cells, western blot); format: cell-based; details: Homo sapiens, HEK-293T; for pIC50: 3 h with 100 nM Tg, test compound 1 nM to 1 μM; for inhibition at 0.1 µM: 3 h with 100 nM thapsigargin (Tg) and 100 nM test compound; for inhibition at 0.1 µM / inhibition at 1 µM: Tg alone 0%, untreated 100%; for inhibition at 1 µM: 3 h with 100 nM thapsigargin (Tg) and 1 μM test compound
Experimental: HEK293T cells were maintained at 37° C. and 5% CO2 in Dulbecco's Modified Eagle's Media (DMEM) supplemented with 10% fetal bovine serum (FBS), 2 mM L-glutamine, 100 U/ml penicillin, and 100 μg/ml streptomycin. […] Cells without treatment or cells treated with Tg alone were used as controls.
After 3 hours of treatment with Tg and the test compound, cells were lysed with SDS-PAGE lysis buffer. Lysates were transferred to 1.5 ml tubes and sonicated for 3 min, and total protein amounts were quantified using BCA Protein Assay Kit (Pierce). Equal amount of proteins were loaded on SDS-PAGE gels. Proteins were transferred onto 0.2 μm PVDF membranes (BioRad) and probed with primary antibodies diluted in Tris-buffered saline supplemented with 0.1% Tween 20 and 3% bovine serum albumin.
as §1, with “ATF4 (11815)” for “Puromycin (12D10)”, “(Cell Signaling Technologies).” for “(Merck Millipore).”, “horseradish peroxidase (HRP)-conjugated” for “HRP-conjugated”
Percentages of ATF4 inhibition after induction with Tg in the presence of 100 nM or 1 μM of certain test compounds are shown in Table 2 and FIG. 1. Percentage of ATF4 inhibition was calculated as the percent reduction normalized to Tg treatment (0% inhibition) and untreated cells (100% inhibition). Also shown in Table 2 is the calculated IC50 for the test compounds. […] Accordingly, inhibition of ATF4 expression as a result of the test compound indicates suppression of the ISR pathway.

[1] = CHO cells stressed with 300 nM Tg, Tg alone 0%
[2] = CHO cells stressed with 300 nM Tg, Tg alone 0%, read-out: % Recovery of protein expression (1 μM test compound)
[3] = unstressed CHO cells, 2 h, read-out: % Protein expression relative to untreated (1 μM test compound)

pIC50 (ATF4)	SMILES	ATF4 staining in muscle fiber CSA (fasted Balb/c mice)	activity at 0.1 µM (CHO cells; [1]) [%]	activity at 1 µM (CHO cells; [2]) [%]	activity at 1 µM (CHO cells; [3]) [%]	inhibition at 0.1 µM (ATF4) [%]	inhibition at 1 µM (ATF4) [%]	protein translation (CHO cells; summary of Table 3)	protein synthesis in a cell versus ATF4 translation (CHO cells; under ISR-stressed or non-ISR stressed conditions)
7.31	O=C(NC1CCN(C[C@H](O)COc2ccc(Cl)c(F)c2)CC1)c1ccc2cc(Cl)ccc2n1 (single isomer, unassigned) [Compound 152, (+)-6-chloro-N-(1-(3-(4-chloro-3-fluorophenoxy)-2-hydroxypropyl)piperidin-4-yl)quinoline-2-carboxamide]	No staining was detected	99.1	280	239	86	91		
	O=C(COc1ccc(Cl)c(F)c1)N[C@H]1CC[C@H](NC(=O)c2cc3ccncc3o2)CC1 [Compound 24, trans-N-(4-(2-(4-chloro-3-fluorophenoxy)acetamido)cyclohexyl)furo[2,3-c]pyridine-2-carboxamide]		11.8	24.3		18	54		
	O=C(COc1ccc(Cl)c(F)c1)N[C@H]1CC[C@H](NCC(O)COc2ccc(Cl)cc2)CC1 (stereo partly drawn) [Compound 10, trans-2-(4-chloro-3-fluorophenoxy)-N-(4-((3-(4-chlorophenoxy)-2-hydroxypropyl)amino)cyclohexyl)acetamide]		30.6	127		0	11		
	O=C(N[C@H]1CC[C@H](NCCOc2ccc(Cl)c(F)c2)CC1)c1cc2cc(Cl)ccc2o1 [Compound 32, trans-5-chloro-N-(4-((2-(4-chloro-3-fluorophenoxy)ethyl)amino)cyclohexyl)benzofuran-2-carboxamide]		37.7	234	137	38	78		
	O=C(NC1CCN(CC(O)COc2ccc(Cl)c(F)c2)CC1)C1Cc2cc(Cl)ccc2O1 (stereo not drawn) [Compound 20, 5-chloro-N-(1-(3-(4-chloro-3-fluorophenoxy)-2-hydroxypropyl)piperidin-4-yl)-2,3-dihydrobenzofuran-2-carboxamide]		38.6	93.9		14	64		
7.24	O=C(COc1ccc(Cl)c(F)c1)NC1CCN(CC(O)COc2ccc(Cl)c(F)c2)CC1 (stereo not drawn) [Compound 13, 2-(4-chloro-3-fluorophenoxy)-N-(1-(3-(4-chloro-3-fluorophenoxy)-2-hydroxypropyl)piperidin-4-yl)acetamide]		49.6	159	94	57	93		
	O=C(N[C@H]1CC[C@H](NCCOc2ccc(Cl)c(F)c2)CC1)c1ccc2cc(Cl)ccc2n1 [Compound 31, trans-6-chloro-N-(4-((2-(4-chloro-3-fluorophenoxy)ethyl)amino)cyclohexyl)quinoline-2-carboxamide]		25	288	243	41	93		
	O=C(NC1CCN(C[C@@H](O)COc2ccc(Cl)c(F)c2)CC1)c1cc2cc(Cl)ccc2o1 (single isomer, unassigned) [Compound 150, (−)-5-chloro-N-(1-(3-(4-chloro-3-fluorophenoxy)-2-hydroxypropyl)piperidin-4-yl)benzofuran-2-carboxamide]		61	200	184	0	43	increased protein translation	increase protein synthesis in a cell without full inhibition of ATF4 translation
	O=C(N[C@H]1CC[C@H](NCC(O)COc2ccc(Cl)c(F)c2)CC1)c1cc2cc(Cl)ccc2o1 (single isomer, unassigned; (-)) [Compound 155, (−)-trans-5-chloro-N-(4-((3-(4-chloro-3-fluorophenoxy)-2-hydroxypropyl)amino)cyclohexyl)benzofuran-2-carboxamide]		68.5	190	263	60	75		
	CC1(C)CC(NC(=O)COc2ccc(Cl)c(F)c2)CC(C)(C)N1CC(O)COc1ccc(Cl)c(F)c1 (stereo not drawn) [Compound 25, 2-(4-chloro-3-fluorophenoxy)-N-(1-(3-(4-chloro-3-fluorophenoxy)-2-hydroxypropyl)-2,2,6,6-tetramethylpiperidin-4-yl)acetamide]		11.4	22.9		0	0		

SMILES	pIC50 (ATF4)	ATF4 staining in muscle fiber CSA (fasted Balb/c mice)	activity at 0.1 µM (CHO cells; [1]) [%]	activity at 1 µM (CHO cells; [2]) [%]	activity at 1 µM (CHO cells; [3]) [%]	inhibition at 0.1 µM (ATF4) [%]	inhibition at 1 µM (ATF4) [%]	protein translation (CHO cells; summary of Table 3)	protein synthesis in a cell versus ATF4 translation (CHO cells; under ISR-stressed or non-ISR stressed conditions)
O=C(COc1ccc(Cl)cc1)NC1CCN(CC(O)COc2ccc(Cl)cc2)CC1 (single isomer, unassigned; (-)) [Compound 15, (−)-2-(4-chlorophenoxy)-N-(1-(3-(4-chlorophenoxy)-2-hydroxypropyl)piperidin-4-yl)acetamide]	7.28		35.6	159	68.3	77	99		

Reference: patent US11230542B2, “Inhibitors of integrated stress response pathway” (Praxis Biotech LLC, priority 2017, dated 2022)
